We go through 19 molecules from BindingDB's records for doi:10.1016/j.bmcl.2009.01.008 (Pfizer, 2009).

Molecules are shown by their SMILES. Several values for one entry are separate records, joined by “and”; a condition that tells them apart may be missing. Identical values can stand only once.

This assay can be described thus: Antagonist activity at human recombinant CCR5 expressed in human HeLa-P4 cells assessed as inhibition of human HeLa-P4 cells binding to HIV1 gp160 expressing CHO cells by cell-cell fusion assay.
Regarding `Cc1nnc(C(C)C)n1C1CCN(C(C)C[C@H](NC(=O)C(C)C)c2ccccc2)CC1` (mixture of isomers) [(+/-)-N-((1S)-3-(4-(3-isopropyl-5-methyl-4H-1,2,4-triazol-4-yl)piperidin-1-yl)-1-phenylbutyl)isobutyramide], the IC50 (usually the concentration that inhibits the measured activity by half) worked out at 3.11 nM.

On to `Cc1nnc(C(C)C)n1C1CCN(C(C)C[C@H](NC(=O)C2CC2)c2ccccc2)CC1` (mixture of isomers) [(+/-)-N-((1S)-3-(4-(3-isopropyl-5-methyl-4H-1,2,4-triazol-4-yl)piperidin-1-yl)-1-phenylbutyl)cyclopropanecarboxamide], for which the half-inhibitory concentration (IC50) worked out at 3.93 nM.

As for `Cc1nnc(C(C)C)n1C1CCN(C(C)C[C@H](NC(=O)COCC(F)(F)F)c2ccccc2)CC1` (mixture of isomers) [(+/-)-N-((1S)-3-(4-(3-isopropyl-5-methyl-4H-1,2,4-triazol-4-yl)piperidin-1-yl)-1-phenylbutyl)-2-(2,2,2-trifluoroethoxy)acetamide], the half-inhibitory concentration (IC50) worked out at 52.8 nM.

Consider `Cc1nnc(C(C)C)n1C1CCN([C@@H](C)C[C@H](NC(=O)C2CCC(F)(F)CC2)c2ccccc2)CC1` [4,4-difluoro-N-((1S,3S)-3-(4-(3-isopropyl-5-methyl-4H-1,2,4-triazol-4-yl)piperidin-1-yl)-1-phenylbutyl)cyclohexanecarboxamide], for which the IC50 came out at 49.9 nM.

With `Cc1nnc(C(C)C)n1C1CCN(C(C)C[C@H](NC(=O)CC2CC2)c2ccccc2)CC1` (mixture of isomers) [(+/-)-2-cyclopropyl-N-((1S)-3-(4-(3-isopropyl-5-methyl-4H-1,2,4-triazol-4-yl)piperidin-1-yl)-1-phenylbutyl)acetamide], the IC50 stood at 3.16 nM.

As for `CC(=O)N[C@@H](CC(C)N1CCC(n2c(C)nnc2C(C)C)CC1)c1ccccc1` (mixture of isomers) [(+/-)-N-((1S)-3-(4-(3-isopropyl-5-methyl-4H-1,2,4-triazol-4-yl)piperidin-1-yl)-1-phenylbutyl)acetamide], the IC50 came to 89.2 nM.

In the case of `Cc1nnc(C(C)C)n1C1CCN(C(C)C[C@H](NC(=O)N2CCOCC2)c2ccccc2)CC1` (mixture of isomers) [(+/-)-N-((1S)-3-(4-(3-isopropyl-5-methyl-4H-1,2,4-triazol-4-yl)piperidin-1-yl)-1-phenylbutyl)morpholine-4-carboxamide], the IC50 amounted to 176 nM.

In the case of `Cc1nnc(C(C)C)n1C1CCN(C(C)C[C@H](NC(=O)C2CC[S+]([O-])CC2)c2ccccc2)CC1` (mixture of isomers) [(+/-)-1-Oxo-hexahydro-1lambda*4*-thiopyran-4-carboxylic acid{(S)-3-[4-(3-isopropyl-5-methyl-[1,2,4]triazol-4-yl)-piperidin-1-yl]-1-phenyl-butyl}-amide], the IC50 was 4.87 nM.

For the molecule `Cc1nnc(C(C)C)n1C1CCN(C(C)C[C@H](NC(=O)C2CCCCC2)c2ccccc2)CC1` (mixture of isomers) [(+/-)-N-((1S)-3-(4-(3-isopropyl-5-methyl-4H-1,2,4-triazol-4-yl)piperidin-1-yl)-1-phenylbutyl)cyclohexanecarboxamide], the IC50 worked out at 0.513 nM.

For `Cc1nc(C(C)C)n(C2CC3CCC(C2)N3CC[C@H](NC(=O)C2CCC(F)(F)CC2)c2ccccc2)n1` (stereo partly drawn) [4,4-difluoro-N-((1S)-3-(3-(5-isopropyl-3-methyl-1H-1,2,4-triazol-1-yl)-8-azabicyclo[3.2.1]octan-8-yl)-1-phenylpropyl)cyclohexanecarboxamide], the IC50 was determined as 1.4 nM.

As to `Cc1nnc(C(C)C)n1C1CCN(C(C)C[C@H](NC(=O)C2CCCC2)c2ccccc2)CC1` (mixture of isomers) [(+/-)-N-((1S)-3-(4-(3-isopropyl-5-methyl-4H-1,2,4-triazol-4-yl)piperidin-1-yl)-1-phenylbutyl)cyclopentanecarboxamide], the IC50 is 0.137 nM.

As to `Cc1nnc(C(C)C)n1C1CCN(C(C)C[C@H](NC(=O)N2CCN(C)CC2)c2ccccc2)CC1` (mixture of isomers) [(+/-)-N-((1S)-3-(4-(3-isopropyl-5-methyl-4H-1,2,4-triazol-4-yl)piperidin-1-yl)-1-phenylbutyl)-4-methylpiperazine-1-carboxamide], the IC50 amounted to 187 nM.

`COC(=O)N[C@@H](CC(C)N1CCC(n2c(C)nnc2C(C)C)CC1)c1ccccc1` (mixture of isomers) [(+/-)-methyl(1S)-3-(4-(3-isopropyl-5-methyl-4H-1,2,4-triazol-4-yl)piperidin-1-yl)-1-phenylbutylcarbamate]: the IC50 amounted to 315 nM.

Regarding `Cc1nnc(C(C)C)n1C1CCN(C(C)C[C@H](NC(=O)C2CCS(=O)(=O)CC2)c2ccccc2)CC1` (mixture of isomers) [(+/-)-1,1-Dioxo-hexahydro-1lambda*6*-thiopyran-4-carboxylic acid{(S)-3-[4-(3-isopropyl-5-methyl-[1,2,4]triazol-4-yl)-piperidin-1-yl]-1-phenyl-butyl}-amide], the IC50 worked out at 6.12 nM.

Take `Cc1nnc(C(C)C)n1C1CCN(C(C)C[C@H](NC(=O)C2CC(F)(F)C2)c2ccccc2)CC1` (mixture of isomers): the concentration for half-maximal inhibition (IC50) is 1.3 nM and 0.38 nM.

Take `Cc1nnc(C(C)C)n1C1CCN(C(C)C[C@H](NC(=O)C2CCOCC2)c2ccccc2)CC1` (mixture of isomers) [(+/-)-N-((1S)-3-(4-(3-isopropyl-5-methyl-4H-1,2,4-triazol-4-yl)piperidin-1-yl)-1-phenylbutyl)tetrahydro-2H-pyran-4-carboxamide]: the IC50 came to 164 nM.

As to `Cc1nnc(C(C)C)n1C1CCN([C@H](C)C[C@H](NC(=O)C2CC(F)(F)C2)c2ccccc2)CC1` [3,3-difluoro-N-((1S,3R)-3-(4-(3-isopropyl-5-methyl-4H-1,2,4-triazol-4-yl)piperidin-1-yl)-1-phenylbutyl)cyclobutanecarboxamide], the 50% inhibitory concentration (IC50) was found to be 0.48 nM.

In the case of `CC(=O)N1CCC(C(=O)N[C@@H](CC(C)N2CCC(n3c(C)nnc3C(C)C)CC2)c2ccccc2)CC1` (mixture of isomers) [(+/-)-1-acetyl-N-((1S)-3-(4-(3-isopropyl-5-methyl-4H-1,2,4-triazol-4-yl)piperidin-1-yl)-1-phenylbutyl)piperidine-4-carboxamide], the IC50 is 28.7 nM.

For `Cc1nnc(C(C)C)n1C1CCN(C(C)C[C@H](NC(=O)CC(F)(F)F)c2ccccc2)CC1` (mixture of isomers) [(+/-)-3,3,3-trifluoro-N-((1S)-3-(4-(3-isopropyl-5-methyl-4H-1,2,4-triazol-4-yl)piperidin-1-yl)-1-phenylbutyl)propanamide], the IC50 is 85.3 nM.
